From US8575156B2, “Cyclic inhibitors of 11β-hydroxysteroid dehydrogenase 1” (Vitae Pharmaceuticals, Inc., priority 2007, dated 2013)
pIC50: −log10 of the molar value. Where two headings read alike, the source gives them in different places.

Molecular target: 11β-HSD1 (Homo sapiens, UniProt P28845)
Experiment: biochemical
Details: for pIC50: IC50 Range; for inhibition at 0.1111 µM: read-out: Average % inhibition at 111.1 nM, Biological Test Example 1, 111.1 nM compound
[1] = Biological Test Example 1, microsomes from CHO cells overexpressing human 11β-HSD1
[2] = read-out: Average % inhibition at 100 nM, Biological Test Example 1, 100 nM
[3] = read-out: Average % inhibition at 100 nM, Biological Test Example 1, 100 nM compound

Chain of 11β-HSD1 (P28845 whole entry): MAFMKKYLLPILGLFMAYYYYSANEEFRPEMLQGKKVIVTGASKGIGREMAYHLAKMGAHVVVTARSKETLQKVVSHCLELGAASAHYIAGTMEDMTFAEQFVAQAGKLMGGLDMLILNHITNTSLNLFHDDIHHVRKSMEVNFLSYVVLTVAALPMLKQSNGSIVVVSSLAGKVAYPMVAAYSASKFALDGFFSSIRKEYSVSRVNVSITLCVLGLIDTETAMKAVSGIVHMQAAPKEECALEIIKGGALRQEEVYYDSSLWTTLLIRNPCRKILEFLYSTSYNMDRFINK

Row | SMILES | pIC50 [1] | inhibition at 0.1 µM [2] [%] | inhibition at 0.1111 µM [%] | other results
1 | C[C@@H](c1ccc(Br)cc1F)N1CC[C@](CCCO)(c2ccc(F)cc2)OC1=O [EXAMPLE 581, (R)-3-((S)-1-(4-bromo-2-fluorophenyl)ethyl)-6-(4-fluorophenyl)-6-(3-hydroxypropyl)-1,3-oxazinan-2-one] | > 7.00 | 96.4 | – | –
2 | C[C@@H](c1ccccc1)N1CC[C@](CCO)(c2ccc(F)cc2)OC1=O (single isomer, unassigned) [EXAMPLE 97 Isomer 2] | > 7.00 | – | 88.2 | –
3 | CC1(c2ccccc2)CCN(c2cccc(-c3ccncc3)c2)C(=O)O1 (centres unmarked) [EXAMPLE 33, 6-methyl-6-phenyl-3-(3-(pyridin-4-yl)phenyl)-1,3-oxazinan-2-one] | – | – | 37.1 | –
4 | CN(C)S(=O)(=O)c1cccc(-c2cccc(N3CCC(C)(c4ccccc4)OC3=O)c2)c1 (centres unmarked) [EXAMPLE 14, N,N-dimethyl-3′-(6-methyl-2-oxo-6-phenyl-1,3-oxazinan-3-yl)biphenyl-3-sulfonamide] | 6.00 to 7.00 | – | 21.9 | –
5 | Cc1ccc([C@H](C)N2CC[C@](CCO)(c3ccc(F)cc3)OC2=O)cc1 [EXAMPLE 421, (S)-6-(4-fluorophenyl)-6-(2-hydroxyethyl)-3-((S)-1-p-tolylethyl)-1,3-oxazinan-2-one] | > 7.00 | 96.1 | – | –
6 | O=C1OC(CCCO)(c2ccc(F)cc2)CCN1Cc1cc(Cl)ccc1Cl (centres unmarked) [EXAMPLE 345, 3-(2,5-dichlorobenzyl)-6-(4-fluorophenyl)-6-(3-hydroxypropyl)-1,3-oxazinan-2-one] | > 7.00 | 74.7 | – | –
7 | COC(=O)c1ccccc1CN1CC[C@](CCCO)(c2ccc(F)cc2)OC1=O [EXAMPLE 352, (R)-methyl 2-((6-(4-fluorophenyl)-6-(3-hydroxypropyl)-2-oxo-1,3-oxazinan-3-yl)methyl)benzoate] | > 7.00 | 60.8 | – | –
8 | CC1(c2ccccc2)CCN(c2cccc(-c3ccc(S(C)(=O)=O)cc3)c2)C(=O)O1 (centres unmarked) [EXAMPLE 11, 3-(4′-Methanesulfonyl-biphenyl-3-yl)-6-methyl-6-phenyl-[1,3]oxazinan-2-one] | 6.00 to 7.00 | – | 28.4 | –
9 | C=CC[C@]1(c2ccc(F)cc2)CCN([C@@H](C)c2ccc(N3CCN(C)CC3)cc2)C(=O)O1 [EXAMPLE 231, (R)-6-allyl-6-(4-fluorophenyl)-3-((S)-1-(4-(4-methylpiperazin-1-yl)phenyl)ethyl)-1,3-oxazinan-2-one] | > 7.00 | – | – | inhibition at 0.1 µM [3]: 57%
10 | C=CC[C@]1(c2ccc(F)cc2)CCN([C@@H](C)c2ccc(-c3ccc(F)cc3F)cc2)C(=O)O1 (single isomer, unassigned) [EXAMPLE 111 Isomer 2] | > 7.00 | – | 58.9 | –
11 | C[C@@H](c1cccc(OCC(=O)N2CCNCC2)c1)N1CCC(C)(c2ccccc2)OC1=O (mixture of isomers) [EXAMPLE 94, (R/S)-6-methyl-3-((S)-1-(3-(2-oxo-2-(piperazin-1-yl)ethoxy)phenyl)ethyl)-6-phenyl-1,3-oxazinan-2-one] | 6.00 to 7.00 | – | 16.2 | –
12 | C[C@@H](c1ccc(-c2ccc(F)cc2)cc1)N1CC[C@](CCN2CCC2)(c2ccc(F)cc2)OC1=O [EXAMPLE 462, (R)-6-(2-(azetidin-1-yl)ethyl)-3-((S)-1-(4′-fluorobiphenyl-4-yl)ethyl)-6-(4-fluorophenyl)-1,3-oxazinan-2-one] | > 7.00 | 72.3 | – | –
13 | C[C@@H](C1CCCCC1)N1CC[C@](CCCNS(C)(=O)=O)(c2ccc(F)cc2)OC1=O [EXAMPLE 319, N-(3-((R)-3-((S)-1-cyclohexylethyl)-6-(4-fluorophenyl)-2-oxo-1,3-oxazinan-6-yl)propyl)methanesulfonamide] | > 7.00 | 93.4 | – | –
14 | C[C@@H](c1ccc(Cl)cc1)N1CC[C@](CCCO)(c2ccccc2)OC1=O [EXAMPLE 403, (R)-3-((S)-1-(4-chlorophenyl)ethyl)-6-(3-hydroxypropyl)-6-phenyl-1,3-oxazinan-2-one] | > 7.00 | 99.5 | – | –
15 | C[C@@H](c1ccc(Br)cc1)N1CC[C@](CCC(N)=O)(c2ccc(F)cc2F)OC1=O (single isomer, unassigned) [EXAMPLE 504 Isomer 2] | > 7.00 | 94.4 | – | –
16 | O=C1OC(CCO)(c2ccccc2F)CCN1c1cccc(-c2ccc(F)cc2)n1 (centres unmarked) [EXAMPLE 104, 6-(2-fluorophenyl)-3-(6-(4-fluorophenyl)pyridin-2-yl)-6-(2-hydroxyethyl)-1,3-oxazinan-2-one] | > 7.00 | – | 85.7 | –
17 | C[C@@H](c1ccc(Br)cc1)N1CC[C@](CCCO)(c2ccccc2)OC1=O [EXAMPLE 392, (R)-3-((S)-1-(4-bromophenyl)ethyl)-6-(3-hydroxypropyl)-6-phenyl-1,3-oxazinan-2-one] | > 7.00 | – | – | –
18 | C[C@@H](c1ccc(C(F)(F)F)cc1)N1CC[C@](CC(C)(C)O)(c2ccc(F)cc2)OC1=O [EXAMPLE 390, (S)-6-(4-fluorophenyl)-6-(2-hydroxy-2-methylpropyl)-3-((S)-1-(4-(trifluoromethyl)phenyl)ethyl)-1,3-oxazinan-2-one] | > 7.00 | 96.3 | – | –

Row | SMILES | pIC50 [1] | inhibition at 0.1 µM [2] [%] | inhibition at 0.1111 µM [%] | other results
19 | CCOC(=O)NCC[C@]1(c2ccc(F)cc2)CCN([C@@H](C)c2ccc(Br)cc2)C(=O)O1 [EXAMPLE 620, ethyl 2-((R)-3-((S)-1-(4-bromophenyl)ethyl)-6-(4-fluorophenyl)-2-oxo-1,3-oxazinan-6-yl)ethylcarbamate] | > 7.00 | 68.7 | – | –
20 | C[C@@H](c1ccc(OC(F)F)cc1)N1CC[C@](CCCNS(C)(=O)=O)(c2ccccc2)OC1=O [EXAMPLE 331, N-(3-((R)-3-((S)-1-(4-(difluoromethoxy)phenyl)ethyl)-2-oxo-6-phenyl-1,3-oxazinan-6-yl)propyl)methanesulfonamide] | > 7.00 | 97.1 | – | –
21 | Cc1ccc([C@H](C)N2CC[C@](CCC(N)=O)(c3ccccc3)OC2=O)cc1 [EXAMPLE 424, 3-((R)-2-oxo-6-phenyl-3-((S)-1-p-tolylethyl)-1,3-oxazinan-6-yl)propanamide] | > 7.00 | 97 | – | –
22 | C[C@@H](c1ccc(-c2ccc(F)cc2F)cc1)N1CC[C@](CC(O)CO)(c2ccccc2)OC1=O (single isomer, unassigned) [EXAMPLE 173 Isomer 1] | > 7.00 | – | – | inhibition at 0.1 µM [3]: 96.7%
23 | C=CCC1(c2ccc(F)cc2)CCN([C@@H](C)c2ccc(OC)cc2)C(=O)O1 (single isomer, unassigned) [EXAMPLE 193 Isomer 1] | > 7.00 | – | – | –
24 | C[C@@H](c1ccc(Br)cc1)N1CCC(CCCO)(c2ccc(F)cc2)OC1=O (single isomer, unassigned) [EXAMPLE 227 Isomer 1] | > 7.00 | – | – | –
25 | C[C@H](c1ccccc1)N1CCC(C)(c2ccccc2)OC1=O (single isomer, unassigned) [EXAMPLE 83 Isomer 1] | 6.00 to 7.00 | – | 50.3 | –
26 | CC(=O)N(C)CCC[C@]1(c2ccccc2)CCN([C@@H](C)c2ccc(Br)cc2)C(=O)O1 [EXAMPLE 506, N-(3-((R)-3-((S)-1-(4-bromophenyl)ethyl)-2-oxo-6-phenyl-1,3-oxazinan-6-yl)propyl)-N-methylacetamide] | > 7.00 | 97.7 | – | –
27 | C[C@@H](c1ccc(-c2ccc(F)cc2)cc1)N1CC[C@@](CCCO)(c2cccs2)OC1=O [EXAMPLE 166, (S)-3-((S)-1-(4′-fluorobiphenyl-4-yl)ethyl)-6-(3-hydroxypropyl)-6-(thiophen-2-yl)-1,3-oxazinan-2-one] | > 7.00 | – | 81.8 | –
28 | O=C(O)CC1(c2ccccc2)CCN(c2cccc(-c3ccc(F)cc3F)c2)C(=O)O1 (centres unmarked) [EXAMPLE 70, 2-(3-(2′,4′-difluorobiphenyl-3-yl)-2-oxo-6-phenyl-1,3-oxazinan-6-yl)acetic acid] | 6.00 to 7.00 | – | 9.3 | –
29 | CC1(c2ccccc2)CCN(c2nccc(-c3ccc(F)cc3F)n2)C(=O)O1 (centres unmarked) [EXAMPLE 59, 3-(4-(2,4-difluorophenyl)pyrimidin-2-yl)-6-methyl-6-phenyl-1,3-oxazinan-2-one] | 6.00 to 7.00 | – | 18 | –
30 | CC1(c2ccccc2)CCN(c2cccc(-c3ccc(CO)cc3)c2)C(=O)O1 (centres unmarked) [EXAMPLE 48, 3-(4′-(hydroxymethyl)biphenyl-3-yl)-6-methyl-6-phenyl-1,3-oxazinan-2-one] | 6.00 to 7.00 | – | 37 | –
31 | C[C@@H](c1ccc(F)cc1)N1CC[C@](CCC(C)(C)O)(c2ccccc2)OC1=O [EXAMPLE 416, (R)-3-((S)-1-(4-fluorophenyl)ethyl)-6-(3-hydroxy-3-methylbutyl)-6-phenyl-1,3-oxazinan-2-one] | > 7.00 | 55.1 | – | –
32 | C[C@@H](c1ccc(-c2ccc(F)cc2F)cc1)N1CC[C@](CCC(N)=O)(c2ccccc2)OC1=O [EXAMPLE 250, 3-((R)-3-((S)-1-(2′,4′-difluorobiphenyl-4-yl)ethyl)-2-oxo-6-phenyl-1,3-oxazinan-6-yl)propanamide] | > 7.00 | – | – | inhibition at 0.1 µM [3]: 97.1%
33 | COc1cccc([C@H](C)N2CCC(C)(c3ccccc3)OC2=O)c1 (single isomer, unassigned) [EXAMPLE 84 Isomer 1] | > 7.00 | – | 74.8 | –
34 | COc1ccc([C@H](C)N2CCC(C)(c3ccccc3)OC2=O)cc1 (stereo partly drawn) [EXAMPLE 85, 3-((S)-1-(4-methoxyphenyl)ethyl)-6-methyl-6-phenyl-1,3-oxazinan-2-one] | > 7.00 | – | 102 | –
35 | O=C1O[C@@](CCCO)(c2ccc(F)cc2)CCN1[C@H]1CCCN(Cc2ccccc2)C1 [EXAMPLE 341, (R)-3-((S)-1-benzylpiperidin-3-yl)-6-(4-fluorophenyl)-6-(3-hydroxypropyl)-1,3-oxazinan-2-one] | – | – | – | pIC50: > 7.00; inhibition at 0.1 µM (read-out: Average % inhibition at 100 nM): 82%
36 | COc1ccc([C@H](C)N2CC[C@](CCO)(c3ccc(F)cc3)OC2=O)cc1 [EXAMPLE 195, (S)-6-(4-fluorophenyl)-6-(2-hydroxyethyl)-3-((S)-1-(4-methoxyphenyl)ethyl)-1,3-oxazinan-2-one] | > 7.00 | – | – | inhibition at 0.1 µM [3]: 96.8%
